In data set [1] the test system is LGKC1 cells. Kind of data set: Immunoblotting of downstream signaling, LGKC1. Format: cell-based, murine. The note with it: LGKC1, IC50 dose. The protocol:
(§1) LGKC1 (9A, 9C, 9E) and LGKC2 (9B, 9D, 9E) cells were treated with IC50 dose of DT 3 for 48 h. Apoptosis was measured by flow cytometry following annexin V and propidium iodide staining (9A, 9B). For cell cycle analysis by flow cytometry (9C, 9D) cells were synchronized with double thymidine block prior to treatment with DT 3. Following the treatment, cell lysates were prepared and impact on downstream signaling was performed by immunoblotting using the indicated antibodies (9E) and subjected to RNA sequencing (9F).
(§2) To determine if the reduced cell proliferation of IPMN cells by DT3 were due to its impact on cell cycle or cell death, we assayed apoptosis and cell cycle analysis by flow cytometry. […] RNA seq analysis of the treated cells further indicated significant upregulation of biological processes associated with programmed cell death, cell proliferation, immune response, and collagen fibril organization (FIG. 9F).
For orientation: Immunoblotting shows a protein as a band on a membrane.

Data set [2] concerns LGKC2 cells. Kind of data set: Cell cycle analysis by flow cytometry, LGKC2. The note with it: LGKC-2, IC50 dose, 48 h, double thymidine block. Format: cell-based, murine. As for the experimental part:
as §1, §2
(In general: Flow cytometry measures light scatter and fluorescence of single cells or particles in a stream.)

The test system of data set [3] is LGKC2 cells. Kind of data set: Immunoblotting of downstream signaling, LGKC2. Format: cell-based, murine. The note with it: LGKC2, IC50 dose. The protocol:
as §1, §2

Data set [4] deals with Wnt receptor activity in 3T3 cells. Kind of data set: Wnt receptor activity (luciferase units) in 3T3 cells. Conditions: after Wnt3a. Format: cell-based.
Data set [5] deals with LGKC2 cells. Kind of data set: Apoptosis by flow cytometry (annexin V / propidium iodide), LGKC2. The note with it: LGKC2, IC50 dose, 48 h. Format: cell-based, murine. The protocol:
as §1, §2

The subject of another data set is HPNE cells. Kind of data set: Apoptosis (C-PARP) in HPNE cells. Format: cell-based.
The test system of data set [6] is LGKC2 cells. Kind of data set: Cell proliferation by MTT assay, LGKC2. Conditions: LGKC2, 48 h. In kind it is cell-based, murine. As for the experimental part:
(§3) LGKC1 (left) and LGKC2 cells were treated with varying doses of DT3 for 24, 48, and 72 h and cell proliferation were measured by MTT assay.
(§4) We further studied the effect of DT3 on the proliferation of recently described murine IPMN cell lines LGKC1 & LGKC2 derived from constitutively active Kras and Gnas murine model of pancreatic cystic lesions [p48-Cre; KrasG12D; Rosa26R-rtTA-TetO-GnasR201C]. […] These IC50 doses were used for downstream functional studies in LGKC1 and LGKC2 cell lines.
Background: Tetrazolium dyes change colour on reduction, which living cells bring about.

Data set [7] has as its system LGKC1 cells. Kind of data set: Apoptosis by flow cytometry (annexin V / propidium iodide), LGKC1. Conditions: LGKC1, IC50 dose, 48 h. Format: cell-based, murine. The protocol: as §1, §2
For data set [8] the following is noted: human, in vivo. The protocol:
(§5) DT3 has been widely used as a dietary supplement for its presumptive benefit in promoting health by decreasing serum cholesterol levels. […] In an NCI-sponsored phase 1 study (NCT00985777), we enrolled 9 out of 25 patients with IPMNs who were treated with DT3 for 2 weeks. […] In our IHC analyses of tumor specimens, we observed a significant induction of cleaved caspase-3 and BAX in the IPMN neoplastic cells of 7 of 9 patients (77%) treated at doses of 100 mg orally twice daily or higher (FIG. 1). We identified 400 mg BID as a Biological Effective Dose (BED) for DT3 in our phase I trial^33. Therefore, we propose to confirm DT3 activity on IPMNs at 400 mg twice daily in a phase II trial, since this was the most bioactive dose observed in our phase I trial.

The subject of data set [9] is LGKC1 cells. Kind of data set: Cell cycle analysis by flow cytometry, LGKC1. The note with it: LGKC-1, IC50 dose, 48 h, double thymidine block. Format: cell-based, murine. The protocol: as §1, §2
Data set [10] has as its system LGKC1 cells. Kind of data set: Cell proliferation by MTT assay, LGKC1. Conditions: LGKC1, 48 h. Format: cell-based, murine. As for the experimental part:
as §3, §4

A further data set has as its system HPNE-Kras cells. Kind of data set: Apoptosis (C-PARP) and signaling protein expression in HPNE-Kras cells. In kind it is cell-based.
For data set [11], the system named is β-catenin expression in 3T3 cells. Kind of data set: β-catenin expression in 3T3 cells. In kind it is cell-based.
Data set [12] relates to β-catenin expression in PCSCs. Kind of data set: β-catenin expression in human PC stem cells (PCSCs). In kind it is cell-based. The note with it: less inhibition with DT 3 without Wnt3a pretreatment.
In the next data set the test system is IPMN neoplastic cells. Kind of data set: IHC of cleaved caspase-3 and BAX in tumor specimens of patients treated with DT3. Format: in vivo, human. The protocol: Lower panel is IHC stained for the pro-apoptotic protein Bax, illustrating the association of DT 3 induction of apoptosis with increased expression of Bax
as §5

Data set [13] has as its system β-catenin expression in HPNE-Kras cells. Kind of data set: β-catenin expression in HPNE-Kras cells. Format: cell-based.
Where [14] appears, read: 100 mg orally twice daily or higher, 2 weeks.

For the molecule `CC(C)=CCC/C(C)=C/CC/C(C)=C/CC[C@]1(C)CCc2cc(O)cc(C)c2O1` [DT3, δ-tocotrienol], the expression of b-catenin result in the data set on LGKC1 cells [1] and in the data set on LGKC2 cells [3] was “no effect” throughout. The “p-AKT, p-ERK1/2, cyclin D1” value with LGKC1 cells [1] and in the data set on LGKC2 cells [3] was “significant reduction” throughout. Also, the “pGSK3β and cleaved PARP” value with LGKC1 cells [1] and with LGKC2 cells [3] was “upregulation” in each case. Also, the cell cycle progression entry in the data set on LGKC2 cells [2] is “no effect on cell cycle progression”; in the data set on LGKC1 cells [9], “G2/M arrest and accumulation of cells in S-phase”. Further, the “agonist (Wnt3a)-induced Wnt receptor activity (luciferase units)” value in data set [4] was “significantly inhibited”. Moreover, the apoptosis entry in the data set with LGKC2 cells [5] and in the data set on LGKC1 cells [7] was “induced apoptosis” in each case. Also, the entries for the “apoptosis (C-PARP)” value in the data set with HPNE cells and in the data set on HPNE-Kras cells were “not in HPNE cells” and “selectively induced apoptosis”, respectively. Besides, the IC50 – broadly, the point on the concentration scale where inhibition reaches its midpoint – in the data set on LGKC2 cells [6] stood at 29.4 µM; with LGKC1 cells [10] it was 25.3 µM. For the same molecule, the half-life result in [8] is reported as “approximately 4 hours”. The “toxicity (dose-limiting toxicities, drug-related adverse events, postoperative complications)” value in data set [8] is reported as “no evidence of toxicity”. Besides, in the data set on HPNE-Kras cells, the “expression of MUC4, MUC16, β-catenin and downstream proteins (C-myc, cyclin D1, survivin)” value is reported as “decreased the expression”. In addition, in the data set on HPNE-Kras cells, the “pAKT and pERK” value was “inhibited”. The “Wnt agonist-induced β-catenin expression” value in data set [11] is recorded as “inhibited”. The β-catenin expression entry in data set [12] and in [13] was “abolished” in each case. The “patients with significant induction of cleaved caspase-3 and BAX in IPMN neoplastic cells” value with IPMN neoplastic cells (setting [14]) was 7 of 9. In addition, the “percent of patients with significant induction of cleaved caspase-3 and BAX in IPMN neoplastic cells” value in the data set with IPMN neoplastic cells (setting [14]) worked out at 77%. Besides, the “apoptosis as measured by cleaved caspase-3 expression (IHC)” value in the data set with IPMN neoplastic cells (patients with IPMN) is “significantly induced apoptosis”.

B1: DKK1: Wnt antagonist (protein, UniProt O94907 32-266, looked up)
Dickkopf-related protein 1: TLNSVLNSNAIKNLPPPLGGAAGHPGSAVSAAPGILYPGGNKYQTIDNYQPYPCAEDEECGTDEYCASPTRGGDAGVQICLACRKRRKRCMRHAMCCPGNYCKNGICVSSDQNHFRGEIEETITESFGNDHSTLDGYSRRTTLSSKMYHTKGQEGSVCLRSSDCASGLCCARHFWSKICKPVLKEGQVCTKHRRKGSHGLEIFQRCYCGEGLSCRIQKDHHQASNSSRLHTCQRH
Regarding B1, the “agonist (Wnt3a)-induced Wnt receptor activity (luciferase units)” value in [4] is given as “inhibited”. Further, the “Wnt agonist-induced β-catenin expression” value in data set [11] is “inhibited”. Further, the β-catenin expression entry in data set [12] and in data set [13] was “abolished” in each case.

(Values after US20250161260A1, “USE OF DELTA-TOCOTRIENOL TO REDUCE THE PROGRESSION OF A NEOPLASM TO A CANCER” (H. LEE MOFFITT CANCER CENTER AND RESEARCH INSTITUTE, INC., priority 2022, published 2025).)
